Laboratory results published in patent publication US11913032B2, “Compositions of and methods for in vitro viral genome engineering” (C3J Therapeutics, Inc., priority 2014, dated 2024).

System: P. aeruginosa biofilm
Experiment: Crystal violet biofilm assay, early (8 h preformed) biofilm disruption
Format: cell-based
Conditions: biofilm preformed for 8 hours, compared with wild type LUZ19
Procedure: To validate that a Gp34 L55Δ mutation had improved viral properties, the LUZ19 viral genome was isolated from viral particles. Site-specific digestion was performed using an RNA-dependent nuclease and in vitro transcribed gRNAs to remove the gp34 gene (SEQ ID NO:4). The gp34 L55Δ gene, which harbors a deletion of leucine codon at amino acid position 55 (Gp34 L55Δ, position 163-165 of SEQ ID NO:4) was PCR amplified from a LUZ19 evolved phage. The Gibson Assembly method was used to integrate the PCR amplified gp34 L55Δ gene seamlessly into the digested LUZ19 genome. The in vitro transformed genomes were transformed directly into host cells to yield functional viral particles. The engineered LUZ19 virus harboring Gp34 L55Δ was able to diffuse and lyse bacteria. […] Images were taken and zones of clearing were measured over a two-day period (FIG. 5B). […] Crystal violet biofilm assay measures biofilm accumulation as a measure of the incorporation of crystal violet (FIG. 5C). […]
The LUZ19*LKD16gp18 virus was analyzed for improved viral properties, using double agar plaque, biofilm, and an in vitro human keratinocyte attachment assays. […] Specifically, LUZ19*LKD16gp18 and wild type LUZ19 were incubated with a P. aeruginosa biofilm and disruption was measured using crystal violet. […] The LUZ19*LKD16gp18 virus was analyzed for efficacy of phage treatment against bacteria attached to human keratinocytes. […]

Gentamicin was tested, and the early biofilm disruption was “completely remove biofilm”.
